Laboratory results published in publication PMC11304049 (RSC Advances, 2024).
Several values for one entry are separate records, joined by “and”; a condition that tells them apart may be missing. Identical values can stand only once. Like-named read-outs stand apart in the source and are kept apart here.

Assays:
[1] = tested on: Pf3D7; assay: microbe, parasite or virus in culture; assay type: cell-based; settings: Plasmodium falciparum, 3D7, read-out: Pf3D7 IC50
[2] = tested on: PfW2; assay: microbe, parasite or virus in culture; assay type: cell-based, Plasmodium falciparum; settings: read-out: PfW2 IC50
[3] = molecular target: T1, Falcipain-3 (Plasmodium falciparum, UniProt Q8IIL0); assay: biochemical
T1 sequence (Q8IIL0 243-492): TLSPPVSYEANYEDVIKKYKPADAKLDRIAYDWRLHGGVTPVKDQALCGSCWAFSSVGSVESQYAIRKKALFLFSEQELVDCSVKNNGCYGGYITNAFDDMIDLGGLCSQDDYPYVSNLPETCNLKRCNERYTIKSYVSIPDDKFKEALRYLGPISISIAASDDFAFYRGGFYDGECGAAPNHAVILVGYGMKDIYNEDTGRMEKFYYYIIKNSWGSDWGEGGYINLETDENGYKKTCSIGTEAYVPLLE

[4] = molecular target: T2, Falcipain-2 (Plasmodium falciparum, UniProt Q8I6U4); assay: biochemical; settings: Falcipain-2 (IC50 μM), mean of triplicate
T2 sequence (Q8I6U4 244-484): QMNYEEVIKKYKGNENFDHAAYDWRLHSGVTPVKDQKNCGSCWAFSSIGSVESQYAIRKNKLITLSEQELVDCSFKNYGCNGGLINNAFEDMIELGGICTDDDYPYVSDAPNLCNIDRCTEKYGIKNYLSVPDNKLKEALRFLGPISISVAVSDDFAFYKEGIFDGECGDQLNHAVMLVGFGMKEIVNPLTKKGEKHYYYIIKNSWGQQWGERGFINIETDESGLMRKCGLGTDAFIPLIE

[5] = tested on: early ring stage 3D7 parasite of P. falciparum; assay: Impact on parasite growth and morphology; assay type: cell-based, Plasmodium falciparum; settings: ring-stage parasites, 3 × IC50 concentration, smears after 24 and 48 hours
[6] = Cytotoxicity by MTT assay, lung cancer A5489 cell line; assay type: cell-based, human; settings: human, lung cancer A5489 cell line
[7] = tested on: lung cancer A5489 cell line; assay: as above; assay type: cell-based, human; settings: for Selectivity index (SI) with Pf3D7 strain, A5489: cytotoxicity IC50 / Pf3D7 IC50; for Selectivity index (SI) with PfW2 strain, A5489: cytotoxicity IC50 / PfW2 IC50
[8] = Cytotoxicity by MTT assay, Vero cells; assay type: cell-based; settings: African green monkey, Vero cells
[9] = tested on: Vero cell; assay: Cytotoxicity by MTT assay, Vero cells; assay type: cell-based; settings: for Selectivity index (SI) with Pf3D7 strain, Vero cell: cytotoxicity IC50 / Pf3D7 IC50; for Selectivity index (SI) with PfW2 strain, Vero cell: cytotoxicity IC50 / PfW2 IC50
[10] = tested on: PfW2; settings: read-out: PfW2 IC50; reference drugs, reported earlier; cited from earlier work
[11] = tested on: Pf3D7; settings: read-out: Pf3D7 IC50; reference drugs, reported earlier; cited from earlier work

SMILES: O=C1CC2(CCN(c3cc(N4CCN(S(=O)(=O)N5CCOCC5)CC4)ncn3)CC2)Oc2ccccc21 [SZ13, 1′-(6-(4-(Morpholinosulfonyl)piperazin-1-yl)pyrimidin-4-yl) spiro[chromane-2,4′-piperidin]-4-one]
- IC50 [1]: 22.2 ± 0.36 µM
- IC50 ([2]; Plasmodium falciparum): > 15 µM

SMILES: O=C1CC2(CCN(c3cc(N4CCN(S(=O)(=O)c5cccc(C(F)(F)F)c5)CC4)ncn3)CC2)Oc2ccccc21 [SZ14, 1′-(6-(4-((3-(Trifluoromethyl)phenyl)sulfonyl)piperazin-1-yl)pyrimidin-4-yl)spiro [chromane-2,4′-piperidin]-4-one]
- IC50 [3]: 5.4 ± 0.7 µM
- IC50 [1]: 2.84 ± 0.21 µM
- IC50 [4]: 4.1 ± 1.1 µM
- Effect on erythrocytic growth of the parasite [5]: stopped at the early trophozoite stage
- IC50 ([2]; Plasmodium falciparum): 2.84 µM
- IC50 [2]: 3.12 ± 0.14 µM
- IC50 at 24 h [6]: 66.2 ± 2.14 µM
- Selectivity index (SI) with Pf3D7 strain, A5489 [7]: 23.31
- Selectivity index (SI) with PfW2 strain, A5489 [7]: 21.22
- IC50 at 72 h [8]: > 1000 µM
- Selectivity index (SI) with Pf3D7 strain, Vero cell [9]: 352.11
- Selectivity index (SI) with PfW2 strain, Vero cell [9]: 320.51

SMILES: O=C1CC2(CCN(c3cc(N4CCN(S(=O)(=O)c5ccccc5[N+](=O)[O-])CC4)ncn3)CC2)Oc2ccccc21 [SZ2, 1′-(6-(4-((2-Nitrophenyl)sulfonyl)piperazin-1-yl)pyrimidin-4-yl)spiro [chromane-2,4′-piperidin]-4-one]
- IC50 [1]: 18.1 ± 0.43 µM
- IC50 ([2]; Plasmodium falciparum): > 14 µM
- IC50 [2]: > 15 µM

SMILES: CCN(CC)CCCC(C)Nc1ccnc2cc(Cl)ccc12 (stereo not drawn) [CQ, Chloroquine]
- IC50 [10]: 0.051 ± 0.001 µM
- IC50 [11]: 0.018 ± 0.002 µM

SMILES: O=C1CC2(CCN(c3cc(N4CCN(S(=O)(=O)c5ccccc5F)CC4)ncn3)CC2)Oc2ccccc21 [SZ8, 1′-(6-(4-((2-Fluorophenyl)sulfonyl)piperazin-1-yl)pyrimidin-4-yl)spiro[chromane-2,4′-piperidin]-4-one]
- IC50 [1]: 5.61 ± 0.42 µM
- IC50 ([2]; Plasmodium falciparum): 8.12 ± 0.37 µM

SMILES: O=C1CC2(CCN(c3cc(N4CCN(S(=O)(=O)c5ccc6ccccc6c5)CC4)ncn3)CC2)Oc2ccccc21 [SZ3, 1′-(6-(4-(Naphthalen-2-ylsulfonyl)piperazin-1-yl)pyrimidin-4-yl)spiro[chromane-2,4′-piperidin]-4-one]
- IC50 [1]: 25.2 ± 0.35 µM
- IC50 ([2]; Plasmodium falciparum): > 15 µM

SMILES: O=C1CC2(CCN(c3cc(N4CCN(S(=O)(=O)c5ccc(F)c(F)c5)CC4)ncn3)CC2)Oc2ccccc21 [SZ11, 1′-(6-(4-((3,4-Difluorophenyl)sulfonyl)piperazin-1-yl)pyrimidin-4-yl)spiro [chromane-2,4′-piperidin]-4-one]
- IC50 [3]: 8 ± 1.4 µM
- IC50 [1]: 3.92 ± 0.25 µM
- IC50 [4]: 6.5 ± 1.6 µM
- Effect on erythrocytic growth of the parasite [5]: stopped at the early trophozoite stage
- IC50 ([2]; Plasmodium falciparum): 5.58 ± 0.19 µM
- IC50 at 24 h [6]: 94.2 ± 2.97 µM
- Selectivity index (SI) with Pf3D7 strain, A5489 [7]: 24.01
- Selectivity index (SI) with PfW2 strain, A5489 [7]: 16.87
- IC50 at 72 h [8]: > 1000 µM
- Selectivity index (SI) with Pf3D7 strain, Vero cell [9]: 255.10
- Selectivity index (SI) with PfW2 strain, Vero cell [9]: 179.21

SMILES: N#Cc1ccc(S(=O)(=O)N2CCN(c3cc(N4CCC5(CC4)CC(=O)c4ccccc4O5)ncn3)CC2)cc1 [SZ4, 4-((4-(6-(4-Oxospiro[chromane-2,4′-piperidin]-1′-yl)pyrimidin-4-yl)piperazin-1-yl)sulfonyl)benzonitrile]
- IC50 [1]: 6.33 ± 0.29 µM
- IC50 ([2]; Plasmodium falciparum): 14.4 ± 0.16 µM

SMILES: O=C1CC2(CCN(c3cc(N4CCN(S(=O)(=O)c5cccs5)CC4)ncn3)CC2)Oc2ccccc21 [SZ5, 1′-(6-(4-(Thiophen-2-ylsulfonyl)piperazin-1-yl)pyrimidin-4-yl) spiro[chromane-2,4′-piperidin]-4-one]
- IC50 [1]: 7.45 ± 0.37 µM
- IC50 ([2]; Plasmodium falciparum): 13.3 ± 0.19 µM

SMILES: O=C1CC2(CCN(c3cc(N4CCN(S(=O)(=O)c5ccc([N+](=O)[O-])cc5)CC4)ncn3)CC2)Oc2ccccc21 [SZ1, 1′-(6-(4-((4-Nitrophenyl)sulfonyl)piperazin-1-yl)pyrimidin-4-yl)spiro[chromane-2,4′-piperidin]-4-one]
- IC50 [1]: 14.8 ± 0.24 µM
- IC50 ([2]; Plasmodium falciparum): > 14 µM
- IC50 [2]: > 15 µM

SMILES: CCc1nc(N)nc(N)c1-c1ccc(Cl)cc1 [PYR, pyrimethamine]
- IC50 [10]: 129 ± 11.3 µM
- IC50 [11]: 0.015 ± 0.0002 µM

SMILES: O=C1CC2(CCN(c3cc(N4CCN(S(=O)(=O)c5ccc(F)cc5)CC4)ncn3)CC2)Oc2ccccc21 [SZ9, 1′-(6-(4-((4-Fluorophenyl)sulfonyl)piperazin-1-yl)pyrimidin-4-yl)spiro[chromane-2,4′-piperidin]-4-one]
- IC50 [3]: 6.3 ± 1.2 µM
- IC50 [1]: 3.22 ± 0.07 µM
- IC50 [4]: 5.4 µM and 4.9 µM
- Effect on erythrocytic growth of the parasite [5]: stopped at the early trophozoite stage
- IC50 ([2]; Plasmodium falciparum): 3.89 ± 0.23 µM
- IC50 at 24 h [6]: 78.5 ± 2.76 µM
- Selectivity index (SI) with Pf3D7 strain, A5489 [7]: 24.36
- Selectivity index (SI) with PfW2 strain, A5489 [7]: 20.17
- IC50 at 72 h [8]: > 1000 µM
- Selectivity index (SI) with Pf3D7 strain, Vero cell [9]: 310.55
- Selectivity index (SI) with PfW2 strain, Vero cell [9]: 257.06

SMILES: O=C1CC2(CCN(c3cc(N4CCN(S(=O)(=O)c5cccnc5)CC4)ncn3)CC2)Oc2ccccc21 [SZ7, 1′-(6-(4-(Pyridin-3-ylsulfonyl)piperazin-1-yl)pyrimidin-4-yl)spiro[chromane-2,4′-piperidin]-4-one]
- IC50 [1]: 7.97 ± 0.33 µM
- IC50 ([2]; Plasmodium falciparum): 5.64 ± 0.18 µM

SMILES: O=C1CC2(CCN(c3cc(N4CCN(S(=O)(=O)c5cc(F)cc(F)c5)CC4)ncn3)CC2)Oc2ccccc21 [SZ10, 1′-(6-(4-((3,5-Difluorophenyl)sulfonyl)piperazin-1-yl)pyrimidin-4-yl) spiro [chromane-2,4′-piperidin]-4-one]
- IC50 [3]: 8.8 ± 1.5 µM
- IC50 [1]: 4.55 ± 0.34 µM
- IC50 [4]: 7.2 ± 1.8 µM
- Effect on erythrocytic growth of the parasite [5]: stopped at the early trophozoite stage
- IC50 ([2]; Plasmodium falciparum): 6.67 ± 0.16 µM
- IC50 at 24 h [6]: 122 ± 3.39 µM
- Selectivity index (SI) with Pf3D7 strain, A5489 [7]: 26.91
- Selectivity index (SI) with PfW2 strain, A5489 [7]: 18.35
- IC50 at 72 h [8]: > 1000 µM
- Selectivity index (SI) with Pf3D7 strain, Vero cell [9]: 219.79
- Selectivity index (SI) with PfW2 strain, Vero cell [9]: 149.92

SMILES: Cc1noc(C)c1S(=O)(=O)N1CCN(c2cc(N3CCC4(CC3)CC(=O)c3ccccc3O4)ncn2)CC1 [SZ12, 1′-(6-(4-((3,5-Dimethylisoxazol-4-yl)sulfonyl)piperazin-1-yl)pyrimidin-4-yl) spiro[chromane-2,4′-piperidin]-4-one]
- IC50 [1]: 8.46 ± 0.28 µM
- IC50 ([2]; Plasmodium falciparum): > 15 µM
